In article PMC8355244, “A fragment-based approach identifies an allosteric pocket that impacts malate dehydrogenase activity” (Communications Biology, 2021):
Where “and” joins values, the source holds several entries; their conditions need not be identical. Identical values can stand only once. Like-named read-outs stand apart in the source and are kept apart here.

Tests used:
PfMDH = target: T1, PfMDH (Plasmodium falciparum, UniProt Q6VVP7); assay: Thermal shift assay (TSA); format: binding; conditions: three replicate columns
T1 construct: The full-length WT PfMDH gene was cloned into pETM-13; made in house; host or cells: E. coli Rosetta 2 (DE3) pLysS
Method: The TSA experiment was conducted in a BioRad CSX 96 (Biorad). Each reaction consisted of 1 mM of compound (100 mM stock in 100% (v/v) DMSO) and 10 μM PfMDH in 100 mM Na–phosphate buffer pH 7.4, 400 mM NaCl, and 10× Sypro Orange (Invitrogen) for a total volume of 100 μl. Control experiments were performed with 1% (v/v) DMSO. Inflection points were determined using BioRad CFX96™ control software. Generally, a temperature increase of over 1 °C is interpreted as a result of the stabilization of the protein-ligand interaction. On the contrary, a negative shift is considered a destabilization caused by the fragment.

WT PfMDH = target: T2, WT PfMDH (Plasmodium falciparum, UniProt Q6VVP7); assay: Activity screening of 4DT / 4-phenylthiazol-2-amine derivatives (oxidation of malate, absorbance at 340 nm); format: biochemical
T2 construct: The full-length WT PfMDH gene was cloned into pETM-13; made in house; host or cells: E. coli Rosetta 2 (DE3) pLysS
Method: The oxidation of malate to oxaloacetate was assayed spectrophotometrically in flat-bottomed Corning 96-well microplates in a total volume of 250.0 µl in 50 mM glycine buffer pH 10.2[24] with an additional 400 mM NaCl for protein stability. The increase of absorbance at 340 nm was recorded in kinetic mode using a Tecan Spark multimode microplate reader at 298 K. A mastermix of 50 mM NAD+ and 44 μM PfMDH was used for both the screening and kinetics experiments. The final concentration of protein and cofactor were […], respectively. Positive control groups were set (absence of compound) in the same plate as the treated group. The absorbance from the background noise was subtracted from the data and then a linear regression model was employed in order to get the line slope from the first 5 min of the reaction. The percentage of enzymatic activity has been calculated as described by Eq. (1)1 enzymeactivity(%)=slopetreated/slopepositivecontrol*100
1.3 µL of derivatives of 4-phenylthiazol-2-amine in 100% DMSO were mixed with 237.7 µL of a mastermix of WT PfMDH previously incubated with NAD+. The final compound concentration used in this screening was 500 µM in the presence of 0.5% (v/v) DMSO. The microplate was sealed with silver foil for 1-h incubation at 25–35 °C. Finally, reactions in both the samples and control wells were started upon the addition of 13.0 µL of 5 mM malate). At the end of the experiments, the reaction of the plate was spectrophotometrically assayed at 600 nm in order to identify turbidity due to the low solubility of the compound. All measurements were performed in duplicate.

T2 sequence (Q6VVP7 entry or part of it): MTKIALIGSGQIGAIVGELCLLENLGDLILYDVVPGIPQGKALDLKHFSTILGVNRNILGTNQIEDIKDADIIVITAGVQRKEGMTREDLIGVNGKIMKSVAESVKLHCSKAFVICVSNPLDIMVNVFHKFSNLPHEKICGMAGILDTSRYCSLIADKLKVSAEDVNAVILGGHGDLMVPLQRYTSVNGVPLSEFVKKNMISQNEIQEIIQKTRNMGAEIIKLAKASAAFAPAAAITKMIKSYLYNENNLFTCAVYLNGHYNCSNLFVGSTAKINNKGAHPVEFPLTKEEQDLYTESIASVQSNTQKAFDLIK
T1 sequence (Q6VVP7 entry or part of it): as above

Cc1ccc(-c2csc(N)n2)cc1C [compound 5a]
TSA melting curve raw fluorescence signal (PfMDH; Temperature 75): 6191,69391237371 and 6136,98106377792 and 6022,22137708791 | TSA melting curve raw fluorescence signal (PfMDH; Temperature 75.5): 6155,53394325777 and 6106,56217628376 and 5994,69779058543 | TSA melting curve raw fluorescence signal (PfMDH; Temperature 76): 6119,21897947977 and 6076,80705748139 and 5967,4462924716 | TSA melting curve raw fluorescence signal (PfMDH; Temperature 76.5): 6082,92591216179 and 6047,4145361092 and 5940,31651314489 | TSA melting curve raw fluorescence signal (PfMDH; Temperature 77): 6046,49720538895 and 6018,41753205572 and 5913,27495012434 | TSA melting curve raw fluorescence signal (PfMDH; Temperature 77.5): 6010,50289688288 and 5990,00501222795 and 5885,78980691114 | TSA melting curve raw fluorescence signal (PfMDH; Temperature 78): 5974,68191071035 and 5961,9413128759 and 5858,29554785782 | TSA melting curve raw fluorescence signal (PfMDH; Temperature 78.5): 5938,84446109596 and 5933,98335794503 and 5831,1047548002 | TSA melting curve raw fluorescence signal (PfMDH; Temperature 79): 5902,97195912381 and 5906,58331664414 and 5804,43914738993 | TSA melting curve raw fluorescence signal (PfMDH; Temperature 79.5): 5867,41053847852 and 5879,50936774398 and 5777,86836204367 | TSA melting curve raw fluorescence signal (PfMDH; Temperature 80): 5831,53193853565 and 5852,76984504973 and 5751,94689709266 | TSA melting curve raw fluorescence signal (PfMDH; Temperature 80.5): 5795,82019427429 and 5826,58557638173 and 5726,2038969697 | TSA melting curve raw fluorescence signal (PfMDH; Temperature 81): 5760,30095342266 and 5801,18894213247 and 5700,36557719877 | TSA melting curve raw fluorescence signal (PfMDH; Temperature 81.5): 5725,24994225392 and 5776,10279717956 and 5674,32010159986 | TSA melting curve raw fluorescence signal (PfMDH; Temperature 82): 5690,32532905286 and 5751,3477386949 and 5648,72005725552 | TSA melting curve raw fluorescence signal (PfMDH; Temperature 82.5): 5655,78245522646 and 5726,77680893998 and 5623,03287837809 | TSA melting curve raw fluorescence signal (PfMDH; Temperature 83): 5621,55211537617 and 5702,38981297221 and 5597,5741352507 | TSA melting curve raw fluorescence signal (PfMDH; Temperature 83.5): 5587,90100461892 and 5677,89080987549 and 5572,13715933177 | TSA melting curve raw fluorescence signal (PfMDH; Temperature 84): 5554,68764858678 and 5653,54864689514 and 5546,61264074355 | TSA melting curve raw fluorescence signal (PfMDH; Temperature 84.5): 5522,12797974512 and 5629,23115607744 and 5520,89063035555 | TSA melting curve raw fluorescence signal (PfMDH; Temperature 85): 5490,3943722303 and 5605,20109514197 and 5495,02372927899 | TSA melting curve raw fluorescence signal (PfMDH; Temperature 85.5): 5459,26859138261 and 5580,93868945953 and 5469,03090217972 | TSA melting curve raw fluorescence signal (PfMDH; Temperature 86): 5428,58283846294 and 5556,95201224284 and 5443,19308365262 | TSA melting curve raw fluorescence signal (PfMDH; Temperature 86.5): 5398,09747442684 and 5532,99737771582 and 5417,41903670835 | TSA melting curve raw fluorescence signal (PfMDH; Temperature 87): 5367,90135308437 and 5508,96565185791 and 5391,30496945424 | TSA melting curve raw fluorescence signal (PfMDH; Temperature 87.5): 5337,34531670684 and 5484,37750610498 and 5364,66521912081 | TSA melting curve raw fluorescence signal (PfMDH; Temperature 88): 5306,8503048902 and 5459,61999119873 and 5337,15073673697 | TSA melting curve raw fluorescence signal (PfMDH; Temperature 88.5): 5276,4616972104 and 5434,08494262397 and 5308,68599271431 | TSA melting curve raw fluorescence signal (PfMDH; Temperature 89): 5246,27326568905 and 5407,79046445709 and 5279,36241888361 | TSA melting curve raw fluorescence signal (PfMDH; Temperature 89.5): 5216,45044474314 and 5380,95498835197 and 5249,45359350464 | TSA melting curve raw fluorescence signal (PfMDH; Temperature 90): 5187,98991931244 | remaining activity at 500 µM (WT PfMDH; 500 µM compound, Dunnett test details, positive control mean 100, n 2, read-out: Mean 2 (mean % enzymatic activity of treated group)): 52% | inhibition at 500 µM (WT PfMDH; 500 µM compound, Dunnett's multiple comparisons test, read-out: Mean Diff. (positive control vs. compound)): 48.5% | remaining activity at 500 µM (WT PfMDH; 500 µM compound, control 100%, replicate 1, read-out: % enzymatic activity repl1): 56% | remaining activity at 500 µM (WT PfMDH; 500 µM compound, control 100%, replicate 2, read-out: % enzymatic activity repl2): 47% | Slope repl1 (WT PfMDH; 500 µM compound, linear regression slope of absorbance 340 nm vs time, replicate 1): 0.01855 | Slope repl2 (WT PfMDH; 500 µM compound, linear regression slope of absorbance 340 nm vs time, replicate 2): 0.01659 | Slope normalized repl1 (WT PfMDH; 500 µM compound, slope relative to control = 1, replicate 1): 0.5569 | Slope normalized repl2 (WT PfMDH; 500 µM compound, slope relative to control = 1, replicate 2): 0.4735 | remaining activity at 500 µM (WT PfMDH; read-out: enzyme activity): 52%
